Test results published in US5369104A, “Pyridazine compounds, their production and use” (Takeda Chemical Industries, Ltd., priority 1991, dated 1994).

System: PAF-induced bronchoconstriction
Experiment: Action against PAF-induced bronchoconstriction in guinea pigs (Konzett-R6essler method)
Type: in vivo, guinea pig (male Hartley)
Details: guinea pig; 10 mg/Kg orally, 1 hour before PAF (1 μg/Kg, i.v.); recorded for 15 minutes
Procedure: (Action against PAF-induced bronchoconstriction in guinea pigs)
Male Hartley guinea pigs (body weight 500 g) were used. The bronchoconstriction reaction in the guinea pig which has intravenously received PAF (1 μg/kg) was measured by the Konzett-R6essler method. The trachea of the guinea pig with its back fixed was incised under anesthesia condition with urethane (intraperitoneal injection, 1.50 g/Kg) and connected with an artificial respirator via a cannula. The branch of the tracheal cannula was connected with a transducer (7020 type, Ugobasile). Air was sent to the trachea at the volume of 3-7 ml/stroke, at the stroke of 70 strokes/min. at load pressure of 10cm H2 O to lung and overflowed air volume was recorded with Rectegraph (Recte-Hori-8s, Sanei Sokuki) via the transducer. After the guinea pig was treated with galamine (1 mg/Kg, i.v.), PAF (1 μg/Kg) dissolved in a physiological saline solution was administered to the guinea pig via a jugular venous cannula and the bronchoconstriction reaction induced thereby was recorded for 15 minutes. The drug (10 mg/Kg) suspended in a 5% gum arabic solution was administered orally 1 hour before the injection of PAF.
Action against PAF-induced bronchoconstriction of guinea pigs

Question: `Cc1cc2nccn2nc1CCC(C)(C)CCS(N)(=O)=O` [Example 4, 6-(3,3-dimethyl-5-sulfamoyl-1-pentyl)-7-methylimidazo[1,2-b]pyridazine] was tested. Which “Inhibition (%) of PAF-induced bronchoconstriction” value did it give?
Answer: 86%
